Measurements reported in paper PMC9964242 (Vaccines, 2023).
≈ marks a conversion by molar mass, not a printed value. Where “and” joins values, the source holds several entries; their conditions need not be identical. Identical values can stand only once. Like-named read-outs stand apart in the source and are kept apart here.

Columns and labels:
[1] = tested on: influenza A/Egypt/NRC098/2019(H1N1)
in vitro = conditions: dog
[2] = tested on: influenza A/Egypt/NRC098/2019(H1N1); experiment: microbe, parasite or virus in culture; conditions: H1N1, MDCK
MDCK cells [3] = tested on: MDCK cells
Zika virus = conditions: cited from earlier work
[4] = tested on: influenza A/chicken/Egypt/N12640A/2016 (H5N1); experiment: microbe, parasite or virus in culture; type: cell-based, influenza A/H5N1 virus; conditions: for IC50: Influenza A virus, H5N1, MDCK, read-out: IC50 (half-maximal inhibitory concentration)
[5] = tested on: seasonal influenza A/H1N1 virus; type: cell-based
[6] = tested on: seasonal influenza A/H1N1 virus; type: cell-based; conditions: for Viral inhibition / inactivation of viral infectivity through direct viricidal action: 10–100 µg/mL
[7] = tested on: seasonal influenza A/H1N1 virus; type: cell-based; remark: listed apart in the source
A/ShanTou/169/06 (H1N1) = conditions: cited from earlier work
MDCK cells [8] = conditions: cited from earlier work
[9] = read-out: IC50 (half-maximal inhibitory concentration)

| Structure (SMILES) | Antiviral activity against A/H1N1 (in words) [1] | SI (selectivity index = CC50/IC50) [1] | CC50 (in vitro) [µg/mL] | IC50 [2, 9] [µg/mL] | CC50 (half-maximal cytotoxic concentration) (MDCK cells [3]; dog) [µg/mL] | IC50 relative to CC50 (in words) [1] | also measured |
| --- | --- | --- | --- | --- | --- | --- | --- |
| C[C@@H]1O[C@@H](O[C@H]2[C@H](Oc3cc(O)c4c(c3)O[C@H](c3ccc(O)cc3)CC4=O)O[C@H](CO)[C@@H](O)[C@@H]2O)[C@H](O)[C@H](O)[C@H]1O [Naringin] | moderate antiviral activity | >485.43 | > 10000 | 20.6 (≈ 35.5 µM) |  |  | IC50 [2]: 20.7 µg/mL (≈ 35.6 µM) |
| C[C@@H]1O[C@@H](Oc2cc(O)c3c(=O)c(O[C@@H]4O[C@@H](C)[C@H](O)[C@@H](O)[C@H]4O)c(-c4ccc(O)cc4)oc3c2)[C@H](O)[C@H](O)[C@H]1O [Kaempferitrin] | moderate antiviral activity | >209.20 | > 10000 | 47.8 (≈ 82.6 µM) |  |  |  |
| C[C@]12CC[C@@H]3c4ccc(O)cc4CC[C@H]3[C@@H]1CC[C@@H]2O [Estradiol, estradiol, reference compound] |  |  | > 5000 |  |  |  | IC50 [2]: 7.1 µg/mL (≈ 26.1 µM) |
| C[C@@H]1CC[C@@]2(OC1)O[C@H]1[C@@H](O)[C@H]3[C@@H]4CC[C@H]5C[C@@H](O[C@@H]6O[C@H](CO)[C@H](O[C@@H]7O[C@H](CO)[C@@H](O)[C@H](O[C@@H]8OC[C@@H](O)[C@H](O)[C@H]8O)[C@H]7O[C@@H]7O[C@H](CO)[C@H](O)[C@H](O[C@@H]8O[C@H](CO)[C@@H](O)[C@H](O)[C@H]8O)[C@H]7O)[C@H](O)[C@H]6O)[C@H](O)C[C@]5(C)[C@H]4CC[C@]3(C)[C@H]1[C@@H]2C [Digitonin] | moderate antiviral activity | 20.56 | 442 (≈ 360 µM) | 21.5 (≈ 17.5 µM) | 442 (≈ 360 µM) |  | IC50 (Zika virus): 7.91 µM; IC50 [2]: 21.6 µg/mL (≈ 17.5 µM) |
| O=C1C[C@@H](c2ccccc2)Oc2cc(O)cc(O)c21 [Pinocembrin] | poor anti-H1N1 activity |  | > 10000 | > 10000 |  |  |  |
| O=c1c(O[C@@H]2O[C@H](CO)[C@@H](O)[C@H](O)[C@H]2O)c(-c2ccc(O)c(O)c2)oc2cc(O)cc(O)c12 [Isoquercitrin] | poor antiviral potential | 4.25 | 710 (≈ 1530 µM) | 167 (≈ 360 µM) | 710 (≈ 1530 µM) |  |  |
| Cc1cc(O)c2c(c1)C(=O)c1cccc(O)c1C2=O [Chrysophanic acid] |  |  | 46.1 (≈ 181 µM) |  | 46.1 (≈ 181 µM) | IC50 > CC50 |  |
| O=c1cc(-c2ccccc2)oc2cc(O)ccc12 [7-Hydroxy flavone] | poor antiviral activity | 16.194 | 5830 (≈ 24500 µM) | 360 (≈ 1510 µM) | 5830 (≈ 24500 µM) |  |  |
| O=C(O)/C=C/c1ccccc1O [O-Coumaric acid] |  |  | 9170 (≈ 55900 µM) |  | 9172 (≈ 55900 µM) | IC50 > CC50 |  |
| O=C1CC(c2ccccc2)Oc2ccccc21 (centres unmarked) [Flavanone] |  |  |  |  |  | IC50 > CC50 | CC50 (half-maximal cytotoxic concentration) (MDCK cells [3]): 450 µg/mL (≈ 2010 µM) |
| COc1cc(C=O)ccc1O [Vanillin] |  |  | 242 (≈ 1590 µM) |  | 242 (≈ 1590 µM) | IC50 > CC50 |  |
| C=C(C)[C@@H]1CC[C@]2(C)CC[C@]3(C)[C@H](CC[C@@H]4[C@@]5(C)CC[C@H](O)C(C)(C)[C@@H]5CC[C@]43C)[C@@H]12 [Lupeol] |  | 5.98 | 560 (≈ 1310 µM) | 93.6 (≈ 219 µM) | 560 (≈ 1310 µM) |  | IC50 [2]: 93.7 µg/mL (≈ 220 µM) |
| OC[C@H]1O[C@@H](Oc2ccc(O)cc2)[C@H](O)[C@@H](O)[C@@H]1O [Arbutin] |  | >13.09 | > 10000 | 764 (≈ 2810 µM) |  |  |  |
| O=C[C@H](O)[C@@H](O)[C@@H](O)[C@H](O)C(=O)O [D-Galacturonic acid, Galacturonic acid] |  |  | 9610 (≈ 49500 µM) |  | 9610 (≈ 49500 µM) | IC50 > CC50 |  |
| CC(=O)N[C@H]1[C@H]([C@H](O)[C@H](O)CO)OC(C(=O)O)=C[C@@H]1N=C(N)N [Zanamivir, reference compound] |  | >12,626 | > 10000 | 0.792 (≈ 2.38 µM) |  |  | SI (selectivity index = CC50/IC50) [4]: >37,736; IC50 [4]: 0.265 µg/mL (≈ 0.797 µM) |
| O=C1c2cccc(O)c2C(=O)c2c(O)cc(CO)cc21 [Aloe emodin] |  | 3.127 | 2280 (≈ 8440 µM) | 729 (≈ 2700 µM) | 2280 (≈ 8440 µM) |  |  |
| CC[C@H](CC[C@@H](C)[C@H]1CC[C@H]2[C@@H]3CC=C4C[C@@H](O[C@@H]5O[C@H](CO)[C@@H](O)[C@H](O)[C@H]5O)CC[C@]4(C)[C@H]3CC[C@]12C)C(C)C [β-sitosterol-O-glucoside] |  | 2434 | 1750 (≈ 3030 µM) | 0.719 (≈ 1.25 µM) | 1750 (≈ 3030 µM) |  | IC50 [4]: 0.613 µg/mL (≈ 1.06 µM); Plaque reduction %, Viral Replication [5]: 28.7% and 37.7% and 52.8%; Plaque reduction %, Viricidal [6]: 83.6% and 93.3% and 97.1%; Viral inhibition / inactivation of viral infectivity through direct viricidal action [6]: up to 90%; Plaque reduction %, Viral Adsorption [7]: 35.8% and 48.3% and 56.9% |
| COc1cc(C2Oc3cc([C@H]4Oc5cc(O)cc(O)c5C(=O)[C@@H]4O)ccc3OC2CO)ccc1O (some centres unmarked) [Silybin] | poor anti-influenza potential |  | 9480 (≈ 19700 µM) |  | 9480 (≈ 19700 µM) | IC50 > CC50 | EC50 (A/ShanTou/169/06 (H1N1)): 70.8 ± 8.11 µM; CC50 (MDCK cells [8]): > 400 µM |
| CC[C@H](CC[C@@H](C)[C@H]1CC[C@H]2[C@@H]3CC=C4C[C@@H](O)CC[C@]4(C)[C@H]3CC[C@]12C)C(C)C [β-sitosterol] |  | 10,154 | 9900 (≈ 23900 µM) | 0.975 (≈ 2.35 µM) | 9900 (≈ 23900 µM) |  | IC50 [4]: 0.295 µg/mL (≈ 0.711 µM); Plaque reduction %, Viral Replication [5]: 31.8% and 41.2% and 52.9%; Plaque reduction %, Viricidal [6]: 84% and 98.5% and 99%; Viral inhibition / inactivation of viral infectivity through direct viricidal action [6]: up to 90%; Plaque reduction %, Viral Adsorption [7]: 28% and 37.5% and 52.5% |
| O=C[C@H](O)[C@@H](O)[C@H](O)[C@H](O)C(=O)O [D-Glucuronic acid, Glucuronic acid] |  |  | 10300 (≈ 52800 µM) |  | 10260 (≈ 52800 µM) | IC50 > CC50 |  |
| OC[C@@H](O)[C@@H](O)[C@H](O)[C@@H](O)CO [D-sorbitol] |  | >3.215 | > 10000 | 3110 (≈ 17100 µM) |  |  |  |
